Where “and” joins values, the source holds several entries; their conditions need not be identical. Identical values can stand only once.
Assays:
Type in all cases: cell-based, human
MRP1/2 in MCF-7 cells = assay: MDR transporter activity assay, MRP in MCF-7; details: MCF-7, 10 µg/mL, 24 h
Protocol: An MDR Assay kit (Abcam, Cambridge, UK) was used following the manufacturer’s instructions. MCF-7 and MDA-MB-231 cells were incubated with compounds 1–3 (10 μg/mL and 20 μg/mL). After 24 h of incubation, the test cells were washed twice with 5 mL of PBS by centrifugation at 1200 rpm for 10 min. The supernatants were discarded and the cells were counted using a Scepter 3.0 handheld automated cell counter (Milipore, Burlington, MA, USA). Then, each of the tested samples was divided into three parts and analyzed. Tomeasure the activity of MDR1, MRP1 and BCRP (tubes 1–12), 5 μL of verapamil (MDR1 inhibitor) was added into tubes 1–3, 5 μL of MK-571 (MRP1 inhibitor) was added into tubes 4–6, 5 μL of noviobiocin (BCRP inhibitor) was added into tubes 7–9 and 125 μL DMEM with 1 μL of DMSO was added into tubes 10–12. Then, the samples were incubated at 37 °C for five minutes. After this time, 125 μL of Efflux Green Detection Reagent was added into tubes 1–12 and the samples were incubated for 30 min at 37 °C. After 25 min of incubation, 5 μL of PI was added to each tube. Thereafter, the samples were centrifuged for 10 min at 1200 rpm. The supernatants were discarded and the cells were resuspended in 500 μL of PBS and run on the flow cytometer immediately. Measurements were conducted on a BD FACSCanto II flow cytometer using FACSDiva software (version 6.1.3, BD Biosciences, San Diego, CA, USA). […]

MDA-MB-231 cells = assay: Annexin V/propidium iodide flow cytometry (apoptosis), MDA-MB-231; details: MDA-MB-231, 24 h, concentration not given
Excerpt: (§1) Flow cytometry analyses for apoptosis induction by the compounds 1–3 and etoposide wereperformedusing an FITC Annexin V Apoptosis Detection Kit II (BD Pharmingen, San Diego, CA, USA). The rationale of the assay is based on the externalization of phosphatidylserine on the surface of apoptotic cells. In early and late apoptotic cells, the phosphatidylserine translocates into the outer layer of the membrane, which allows annexin V-FITC to attach. Propidium iodide (PI) is, in turn, a fluorescent dye that penetrates into the late apoptotic and necrotic cells with impaired cell membrane integrity. Therefore, using annexin V and PI, it is possible to distinguish four groups of cells: living cells, early apoptotic cells, late apoptotic cells and necrotic cells. MCF-7 and MDA-MB-231 cells were incubated with 10 and 20 µg/mL of compounds 1–3 and etoposide (reference drug) for 24 h. After incubation, the cells were dyed with FITC-labeled annexin V and PI. The analysis was performed on a BD FACS Canto II flow cytometer using FACSDiva software (version 6.1.3, BD Biosciences Systems, San Diego, CA, USA). The equipment was calibrated with BD Cytometer Setup and Tracking Beads (BDBiosciences, San Diego, CA, USA).

MCF-10A cells = assay: MTT viability assay, normal breast epithelial cells; details: for IC50: Homo sapiens, MCF-10A, MTT, 24 h; for SIMCF-7 (selectivity index): IC50 MCF-10A/IC50 MCF-7; for SIMDA-MB-231 (selectivity index): IC50 MCF-10A/IC50 MDA-MB-231
Protocol: Human breast cancer cells, i.e., MCF-7 (estrogen-dependent breast cancer cells) and MDA-MB-231 (estrogen-independent breast cancer cells), as well as normal human breast epithelial cells (MCF-10A) were purchased from the American Type Culture Collection (ATCC, Manassas, VA, USA). MCF-7 and MDA-MB-231 cells were cultured in DMEM (Sigma Aldrich, St. Louis, MO, USA) supplemented with 10% fetal bovine serum (FBS), penicillin (100 U/mL) and streptomycin (100 μg/mL). MCF-10A cells were cultured in Mammary Epithelial Cell Growth Medium supplemented with BPE, hEGF, insulin, hydrocortisone, GA-1000 (Lonza, Basel, Switzerland), 10% fetal bovine serum (FBS), penicillin (100 U/mL) and streptomycin (100 μg/mL). The cells were grown in T25 Cell Culture EasyFlask (Nunc, Roskilde, Denmark) at 37 °C in a humidified atmosphere of 5% CO2.
MTT assays were performed to evaluate the cytotoxic activity of the investigated compounds (1–3) against MCF-10A cells. Asuspension of cells (1 × 10^5 cells/mL) was distributed onto 96-well plates at a volume of 100 μL/well. After attachment, the cells were treated with increased concentrations of the tested compounds in medium containing 2% FBS, and incubated for 24 h. Then, 15 μL of MTT working solution (5 mg/mL in PBS) was added to each well and the plates were incubated for 3 h. Subsequently, 100 μL of 10% SDS solution was added to each well in order to dissolve the formazan formed. After overnight incubation at 37 °C, the absorbance of the obtained solution was measured at λ= 570 nm using a microplate reader (Epoch, BioTek Instruments, Inc., Winooski, VT, USA). At least two independent experiments were performed in triplicate. IC50 values of the tested compounds were calculated using the IC50 online calculator [27].

MCF-7 cells = assay: Annexin V/propidium iodide flow cytometry (apoptosis), MCF-7; details: MCF-7, 24 h, concentration not given
Excerpt: as §1

SMILES | MAF MRP (MRP1/2 in MCF-7 cells) | apoptotic cells (MDA-MB-231 cells) [%] | IC50 (MCF-10A cells) | SIMCF-7 (selectivity index) (MCF-10A cells) | SIMDA-MB-231 (selectivity index) (MCF-10A cells) | apoptotic cells (MCF-7 cells) [%]
O=C(Cc1cccc2ccccc12)NNC(=S)Nc1ccc(/N=N/c2ccccc2)cc1 [Compound 2] | 9.9 | 70 | 42.7 µg/mL and 97.2 µM | 4.65 | 5.60 | 
O=C(NNC(=S)Nc1ccc(/N=N/c2ccccc2)cc1)c1ccccc1[N+](=O)[O-] [Compound 3] | 5.3 |  | 40.5 µg/mL and 96.2 µM | 5.30 | 3.86 | ~68
